Patent publication US4036957A, “Phenoxy compounds in combinations to suppress gastric bleeding in aspirin therapy” (priority 1975, dated 1977)
Like-named read-outs stand apart in the source and are kept apart here.

Experiments:
[1] = system: aspirin-induced gastric bleeding; type: in vivo, cats; conditions: cat
Experimental: Fasted cats weighing […] were anesthetized with phenobarbital sodium (130 mg/kg, i.p.). Glyceryl guaiacolate was administered intravenously for a total of 2 hrs. beginning 60 min. prior to the topical application of the aspirin (10 mg) to the gastric mucosa. Throughout the experiment, artificial gastric juice (USP, pH 1.3) bathed the mucosa by means of the specially designed chamber. The number of bleeding sites occurring at various exposure sites were recorded at 15, 30 and 60 min. Glyceryl guaiacolate was given at doses of 10 and 30 mg/kg/hr via a previously cannulated jugular vein using an infusion pump (Harvard Apparatus Co., Model 1202). […] An important point is that with 30 mg/kg/hr, i.v., of glyercyl guaiacolate there was no bleeding at 30 min. compared with an average of 14 bleeding sites when no glyceryl guaiacolate was adminsitered. A total of 23 cats were used and there was a minimum of 24 aspirin exposure sites for each dose of glyceryl guaiacolate.

[2] = system: Carrageenan pleural effusion; test: Evans Blue-Carrageenan Pleural Effusion Test; type: in vivo, rats; conditions: rat
Text: The effect of metaxalone (Compound 15) on the anti-inflammatory activity of aspirin in rats was studied using a modification of the Evans Blue-Carrageenan Pleural Effusion Test [Sancilio, L. F., Journal of Pharmacology and Experimental Therapeutics 168, 199-204 (1969)].

[3] = system: aspirin-induced gastric bleeding; test: Prevention of aspirin-induced gastric bleeding in pyloric-ligated rats, i.p. test compound (Examples 1-22); type: in vivo, Female Sprague-Dawley rats; conditions: rat; for change in vivo at 50 mg/kg: 50 mg/kg i.p.
Experimental: The prevention of aspirin-induced bleeding in rats was determined by the following procedure. Female Sprague-Dawley rats weighing 150-180 g. were fasted for 24 hours on wire and divided into groups of six animals each. The rats were anesthetized and a ligature placed at the pyloric-duodenal junction. Groups serving as controls received normal saline (4.0 ml/kg, i.p.). […] Some of the compounds were tested at 50 mg/kg, i.p. The rats were sacrificed 60 min. after aspirin administration by cervical dislocation. The volume of the gastric contents was determined and compared against that produced with the same amount of aspirin for change in volume. […] (Gradation between 0 to 40 is on an even scale).

aspirin-induced bleeding = conditions: rat; for Gastric Bleeding Index / Percent Decrease In Mucosal Hemorrhage vs. Control / Total Hemoglobin Loss / Volume Gastric Secretion: aspirin ca 375 p.o.
Experimental: The effect of glyceryl guaiacolate (Compound 8) on aspirin-induced bleeding in rats was studied using the following procedure. Female Sprague-Dawley rats, weighing 140-160 g. and fasted for 24 hrs. on wire were divided into groups of 10 animals each. All animals were anesthetized with Metofane® and a ligature placed at the pyloric-duodenal junction. Groups serving as controls received normal saline (4.0 ml/kg, i.p.). Some groups received normal saline and in addition were given aspirin (375 mg/kg, p.o.) in artificial gastric juice; the remaining groups received aspirin in the same amount and also glyceryl guaiacolate 30 min. prior to the aspirin. The aspirin was administered in artificial gastric juice (USP, […]) in a total volume of 2 ml. to each rat. Following a recovery period of 1 hr. the animals received saline, aspirin and glyceryl guaiacolate in the amounts and by the routes indicated. In most of the experiments, 90 min. following aspirin the rats were sacrificed by cervical dislocation. The stomachs were removed and gastric contents collected for further analysis. […] Hemoglobin loss produced by the aspirin was determined by the colorimetric method of Bing and Baker (J. Biol. Chem. 92: 589, 1931). The condition of the gastric mucosa was also assessed by determining the incidence and severity of damage using the scoring system described hereinabove to obtain the "Gastric Bleeding Index".
Following the procedure of Example 26, methocarbamol (Compound 3 ) was tested further in rats via intraperitoneal and intraduodenal administration.

[4] = system: aspirin-induced gastric bleeding; test: Aspirin-induced gastric bleeding in Cr51 labeled Heidenhain pouch dogs, oral; type: in vivo; conditions: dog; for Mucosal Blood Loss, HCl + Aspirin / Mucosal Blood Loss, HCl: ± S.E.; for Mucosal Blood Loss, HCl: without aspirin; for % Change from Control (mucosal blood loss): P >0.05
Experimental: Methocarbamol (Compound 3) and Metaxalone (Compound 15) were evaluated for their effectiveness upon oral administration against aspirin-induced gastric bleeding in dogs. Three female chronic Heindehain pouch dogs were used. Red blood cells from each dog were labeled with Cr^51. The dogs were fasted 24 hours prior to any study and three days elapsed between studies. On experimental days each fundic pouch was rinsed with tepid tap water and then filled with 10 ml. of normal saline. After 30 minutes the saline was replaced with 10 ml. of artificial gastric juice (USP, pH 1.3). The dogs were given Compound 3 (200 mg/kg) or Compound 15 (50 and 100 mg/kg) or placebo (starch) orally in gelatin capsules. The 10 ml. of gastric juice was removed from the pouch after 60 minutes and replaced with another 10 ml. of juice containing 100 mg. of aspirin (80 mesh). This was likewise removed after 60 minutes. All samples collected from the pouches were counted for radio-activity using a deep-well counter. From the amount of radio-activity present in the gastric samples, the loss of blood into the pouch was determined. The results are shown in Table 3 and show the effectiveness of orally administering Compounds 3 and 15 in preventing aspirin-induced gastric bleeding.

[5] = ip, 1 h, aspirin 375 mg/kg p.o., read-out: Percent Decrease in Mucosal Bleeding vs Control
[6] = ip, 1 h, 100 mg/kg i.p., aspirin 375 mg/kg p.o., read-out: Percent Decrease in Mucosal Bleeding vs Control
[7] = score 0 to 40, 100 mg/kg i.p. (column head states no dose), aspirin 375 mg/kg p.o.
[8] = 50 mg/kg i.p., Series 2, ± S.E.
[9] = 50 mg/kg oral, Series 3, ± S.E.
[10] = 100 mg/kg i.p., Series 1, ± S.E., P <0.05
[11] = 100 mg/kg i.p., Series 1, P <0.05
[12] = 100 mg/kg intraduodenal, ± S.E., P <0.05
[13] = 100 mg/kg intraduodenal, P <0.05
[14] = 100 mg/kg oral, Series 3, ± S.E.
[15] = 200 mg/kg i.p., Series 2, ± S.E., P <0.05
[16] = 200 mg/kg i.p., Series 2, P <0.05
[17] = 200 mg/kg intraduodenal, ± S.E., P <0.05
[18] = 200 mg/kg intraduodenal, P <0.05
[19] = 200 mg/kg oral, Series 3, ± S.E.

CC(=O)Oc1ccccc1C(=O)O [Aspirin, aspirin]
average number of bleeding sites ([1]; 30 min, aspirin 10 mg topical, no glyceryl guaiacolate): 14 bleeding sites | Pleural Fluid ([2]; aspirin 150 mg/kg oral, ± S.D., P <0.05): 4.2 ± 0.28 mL | % Decrease in Pleural Fluid vs Control ([2]; aspirin 150 mg/kg oral, P <0.05): 38%

COc1ccccc1OCC(O)CO (centres unmarked) [Compound 8, 3-(2-methoxyphenoxy)-1,2-propanediol]
change in vivo at 50 mg/kg [3, 5]: -57% | change in vivo at 100 mg/kg [3, 6]: -40% | Gastric Bleeding Index [3, 7]: 26.1 | effect on pH (gastric) (aspirin-induced bleeding): a similar effect on pH was not observed | volume of gastric secretion (in words) (aspirin-induced bleeding): significant reduction | Gastric Bleeding Index (aspirin-induced bleeding; 50 mg/kg i.p., Series 2): 26.0 ± 2.6 | Percent Decrease In Mucosal Hemorrhage vs. Control (aspirin-induced bleeding; 50 mg/kg i.p., Series 2): 13.3% | Total Hemoglobin Loss (aspirin-induced bleeding; [8]): 26.7 ± 3.1 mg | Volume Gastric Secretion (aspirin-induced bleeding; [8]): 6.4 ± 0.4 mL | Gastric Bleeding Index (aspirin-induced bleeding; 50 mg/kg intraduodenal): 18.0 ± 4.1 | Percent Decrease In Mucosal Hemorrhage vs. Control (aspirin-induced bleeding; 50 mg/kg intraduodenal): 10.0% | Total Hemoglobin Loss (aspirin-induced bleeding; 50 mg/kg intraduodenal, ± S.E.): 12.4 ± 2.3 mg | Volume Gastric Secretion (aspirin-induced bleeding; 50 mg/kg intraduodenal, ± S.E.): 5.0 ± 0.2 mL | Gastric Bleeding Index (aspirin-induced bleeding; 50 mg/kg oral, Series 3): 30.5 ± 2.4 | Percent Decrease In Mucosal Hemorrhage vs. Control (aspirin-induced bleeding; 50 mg/kg oral, Series 3): 14.2% | Total Hemoglobin Loss (aspirin-induced bleeding; [9]): 29.4 ± 3.2 mg | Volume Gastric Secretion (aspirin-induced bleeding; [9]): 8.0 ± 0.3 mL | Total Hemoglobin Loss (aspirin-induced bleeding; [10]): 8.2 ± 2.5 mg | Volume Gastric Secretion (aspirin-induced bleeding; [10]): 4.2 ± 0.4 mL | Gastric Bleeding Index (aspirin-induced bleeding; [11]): 6.5 ± 4.7 | Percent Decrease In Mucosal Hemorrhage vs. Control (aspirin-induced bleeding; [11]): 77% | Total Hemoglobin Loss (aspirin-induced bleeding; [12]): 7.7 ± 1.2 mg | Volume Gastric Secretion (aspirin-induced bleeding; [12]): 3.9 ± 0.2 mL | Gastric Bleeding Index (aspirin-induced bleeding; [13]): 9.5 ± 2.5 | Percent Decrease In Mucosal Hemorrhage vs. Control (aspirin-induced bleeding; [13]): 57.5% | Gastric Bleeding Index (aspirin-induced bleeding; 100 mg/kg oral, Series 3): 21.0 ± 2.7 | Percent Decrease In Mucosal Hemorrhage vs. Control (aspirin-induced bleeding; 100 mg/kg oral, Series 3): 41.5% | Total Hemoglobin Loss (aspirin-induced bleeding; [14]): 26.2 ± 4.6 mg | Volume Gastric Secretion (aspirin-induced bleeding; [14]): 6.5 ± 0.3 mL | Total Hemoglobin Loss (aspirin-induced bleeding; [15]): 14.5 ± 3.9 mg | Volume Gastric Secretion (aspirin-induced bleeding; [15]): 4.1 ± 0.4 mL | Gastric Bleeding Index (aspirin-induced bleeding; [16]): 6.0 ± 2.1 | Percent Decrease In Mucosal Hemorrhage vs. Control (aspirin-induced bleeding; [16]): 80.0% | Total Hemoglobin Loss (aspirin-induced bleeding; [17]): 4.4 ± 1.0 mg | Volume Gastric Secretion (aspirin-induced bleeding; [17]): 3.5 ± 0.3 mL | Gastric Bleeding Index (aspirin-induced bleeding; [18]): 2.0 ± 1.1 | Percent Decrease In Mucosal Hemorrhage vs. Control (aspirin-induced bleeding; [18]): 90.0% | Percent Decrease In Mucosal Hemorrhage vs. Control (aspirin-induced bleeding; 200 mg/kg oral, Series 3): 46.5% | Total Hemoglobin Loss (aspirin-induced bleeding; [19]): 20.2 ± 1.5 mg | Volume Gastric Secretion (aspirin-induced bleeding; [19]): 6.5 ± 0.5 mL | Gastric Bleeding Index (aspirin-induced bleeding; 200 mg/kg oral, Series 3, P <0.05): 19.0 ± 3.9 | loss of blood into the gastric contents (aspirin-induced bleeding; 100 and 200 mg/kg): markedly reduced | aspirin-induced gastric irritation (aspirin-induced bleeding; 100 and 200 mg/kg by any route): markedly reduced | bleeding at 30 min ([1]; 30 mg/kg/hr i.v., aspirin 10 mg topical): no bleeding | gastric bleeding produced by aspirin with increasing doses ([1]; 10 and 30 mg/kg/hr i.v.): correspondingly reduced

Cc1cc(C)cc(OCC2CNC(=O)O2)c1 (centres unmarked) [Compound 15, 5-(3,5-dimethylphenoxymethyl)-2-oxazolidinone]
% Protection ([4]; 50 mg/kg p.o.): 77% | Mucosal Blood Loss, HCl + Aspirin ([4]; 50 mg/kg p.o.): 8.6 ± 3.7 µL | Mucosal Blood Loss, HCl ([4]; 50 mg/kg p.o.): 4.4 ± 2.4 µL | % Change from Control (mucosal blood loss) ([4]; 50 mg/kg p.o.): +95% | % Protection ([4]; 100 mg/kg p.o.): 100% | Mucosal Blood Loss, HCl + Aspirin ([4]; 100 mg/kg p.o.): 12.7 ± 3.5 µL | Mucosal Blood Loss, HCl ([4]; 100 mg/kg p.o.): 13.0 ± 1.5 µL | % Change from Control (mucosal blood loss) ([4]; 100 mg/kg p.o.): -2% | preventing aspirin-induced gastric bleeding (in words) ([4]; oral): effectiveness | change in vivo at 50 mg/kg [3, 5]: -98% | change in vivo at 100 mg/kg [3, 6]: -96% | ED50 ([3]; ip): 19.6 mg/kg | change in vivo at 100 mg/kg ([3]; ip, 100 mg/kg i.p. (column head states no dose), aspirin 375 mg/kg p.o., read-out: Vol. % Decrease in Gastric Secretion): -41.4% | Gastric Bleeding Index ([3]; 12.5 mg/kg i.p.): 27.5 ± 4.2 | Total Hemoglobin Loss ([3]; 12.5 mg/kg i.p.): 19.3 ± 3.4 mg | Vol. Gastric Secretion ([3]; 12.5 mg/kg i.p.): 6.3 ± 0.3 mL | Percent Decrease in Mucosal Hemorrhage vs Control ([3]; 12.5 mg/kg i.p., P >.05): 21% | Gastric Bleeding Index ([3]; 25.0 mg/kg i.p.): 15.0 ± 5.0 | Total Hemoglobin Loss ([3]; 25.0 mg/kg i.p.): 15.3 ± 6.3 mg | Vol. Gastric Secretion ([3]; 25.0 mg/kg i.p.): 5.1 ± 0.3 mL | Percent Decrease in Mucosal Hemorrhage vs Control ([3]; 25.0 mg/kg i.p., P <.025): 57% | Gastric Bleeding Index ([3]; 50.0 mg/kg i.p.): 0.8 ± 0.8 | Total Hemoglobin Loss ([3]; 50.0 mg/kg i.p.): 2.5 ± 1.1 mg | Vol. Gastric Secretion ([3]; 50.0 mg/kg i.p.): 3.6 ± 0.5 mL | Percent Decrease in Mucosal Hemorrhage vs Control ([3]; 50.0 mg/kg i.p., P <.001): 98% | Gastric Bleeding Index ([3]; 100.0 mg/kg i.p.): 3.3 ± 1.7 | Total Hemoglobin Loss ([3]; 100.0 mg/kg i.p.): 2.5 ± 1.4 mg | Vol. Gastric Secretion ([3]; 100.0 mg/kg i.p.): 3.8 ± 0.4 mL | Percent Decrease in Mucosal Hemorrhage vs Control ([3]; 100.0 mg/kg i.p., P <.001): 91% | preventing aspirin-induced gastric bleeding (in words) ([3]; i.p.): very effective | Gastric Bleeding Index [3, 7]: 0.8 | effect on the anti-inflammatory effectiveness of aspirin ([2]; metaxalone 100 mg/kg 30 min before aspirin 150 mg/kg p.o. and again 2 hrs after Carrageenan): no effect
